Results: US20240000826A1, “METHODS FOR THE TREATMENT OF CARDIOVASCULAR DISEASE WITH CYCLODEXTRINS” (Beren Therapeutics P.B.C., priority 2020, published 2024)

What was measured:
[1] = system: 24S-hydroxycholesterol; assay: plasma level of 24S-hydroxycholesterol in treated subject; type: in vivo; conditions: one human subject; IV 500-1,000 mg/kg every 4 weeks as in Example 2; FIGS. 4A-4C
Description: (§1) The increased production of 24S-hydroxycholesterol and 27-hydroxycholesterol enhance cholesterol metabolism, by acting as endogenous ligands for LXR transcription factors responsible for an anti-inflammatory gene signature.

[2] = system: cholesterol crystals; assay: CCDC of pre-dose blood plasma incubated ex vivo with 2-hydroxypropyl-beta-cyclodextrin; parameters: species or system human; conditions: pre-dose plasma treated ex vivo with 2-hydroxypropyl-beta-cyclodextrin; FIG. 3B
Description: (§2) For each dose, whole blood was collected pre-dose, post-dose (line flush), 1 hour post-dose, and 24 hours post-dose. Plasma was separated from the whole blood and subjected to a cholesterol crystal dissolution capacity (CCDC) assay using techniques similar to those described in the literature. The CCDC assay measures the ability of a sample to dissolve cholesterol crystals.

[3] = system: cholesterol crystals; assay: cholesterol crystal dissolution capacity (CCDC) assay of plasma from treated subject; type: in vivo; conditions: one human subject; single-ascending IV doses 500, 750, 1,000, 1,000 mg/kg every 4 weeks; plasma pre-dose, post-dose, 1 hour and 24 hours post-dose; FIG. 3A
Description: as §2

[4] = system: 27-hydroxycholesterol; assay: plasma level of 27-hydroxycholesterol in treated subject; type: in vivo; conditions: one human subject; IV 500-1,000 mg/kg every 4 weeks as in Example 2; FIGS. 4A-4C
Description: as §1

[5] = system: total cholesterol; assay: total cholesterol level in treated subject; type: in vivo; conditions: one human subject; IV 500-1,000 mg/kg every 4 weeks as in Example 2; FIGS. 4A-4C
Description: as §1

[6] = system: ABCG1; assay: ABCG1 mRNA level in treated subject; type: in vivo; conditions: one human subject; IV 500-1,000 mg/kg every 4 weeks as in Example 2; FIGS. 5A-5D
[7] = system: ABCA1; assay: ABCA1 mRNA level in treated subject; type: in vivo; conditions: one human subject; IV 500-1,000 mg/kg every 4 weeks as in Example 2; FIGS. 5A-5D

Substance: 2-hydroxypropyl-beta-cyclodextrin
- plasma level of 24S-hydroxycholesterol [1]: increased plasma levels
- capacity of plasma to dissolve cholesterol crystals [2]: increased capacity to dissolve cholesterol crystals
- capability of blood plasma to dissolve cholesterol crystals (CCDC) [3]: increased capability of blood plasma to dissolve cholesterol crystals
- plasma level of 27-hydroxycholesterol [4]: increased plasma levels
- total cholesterol levels [5]: remained stable
- ABCG1 mRNA levels [6]: increased mRNA levels
- ABCA1 mRNA levels [7]: increased mRNA levels
